Calls of active or inactive are those of the source. How the calls were made is not given here.

This assay concerns Heart. In words: Cardioprotective effect in Langendorff perfused isolated rat hearts assessed as reduction in ischemic injury. It is filed as functional, tissue-based.
As for `CC1(C)CC2(CN(S(=O)(=O)c3ccccc3)CCO2)c2ccccc2O1` (stereo not given), the outcome was inactive.

On to `Cc1ccc(CN2CCOC3(C2)CC(C)(C)Oc2ccc(Br)cc23)cc1` (stereo not given), for which the outcome was Active.

Regarding `CC1(C)CC2(CN(Cc3ccc(N)cc3)CCO2)c2cc(Br)ccc2O1` (stereo not given), the outcome was inactive.

For the molecule `CC1(C)CC2(CN(Cc3ccccc3)CCO2)c2ccccc2O1` (stereo not given), the outcome was Active.

Turning to `CC1(C)CC2(CN(Cc3ccc(C(F)(F)F)cc3)C(=O)CO2)c2ccccc2O1` (stereo not given), the result was inactive.

Consider `CC1(C)CC2(CN(Cc3ccc(C(F)(F)F)cc3)CCO2)c2cc(Br)ccc2O1` (stereo not given), for which the result was Active.

Take `CC1(C)CC2(CN(Cc3ccc(Br)cc3)CCO2)c2ccccc2O1` (stereo not given): the outcome was inactive.

`CC1(C)CC2(CN(S(=O)(=O)c3ccccc3)C(=O)CO2)c2ccccc2O1` (stereo not given): the outcome was inactive.

As for `CC1(C)CC2(CN(Cc3ccc(NS(C)(=O)=O)cc3)CCO2)c2cc(Br)ccc2O1` (stereo not given), the outcome was Active.

With `CC1(C)Oc2ccc(C#N)cc2C(N2CCCC2=O)C1O` (stereo not given), the result was Active.

With `CC1(C)CC2(CN(Cc3ccc(N)cc3)CCO2)c2ccccc2O1` (stereo not given), the outcome was Active.

As for `CC1(C)CC2(OC(=O)N(Cc3ccc(NS(C)(=O)=O)cc3)C2=N)c2ccccc2O1` (stereo not given), the result was inactive.

Consider `CC(=O)Nc1ccc(CN2CC3(CC(C)(C)Oc4ccccc43)OC2=O)cc1` (stereo not given), for which the outcome was inactive.

In the case of `COc1ccc(CN2CC3(CC(C)(C)Oc4ccc(Br)cc43)OCC2=O)cc1` (stereo not given), the outcome was Active.

As for `Cc1ccc(CN2CC3(CC(C)(C)Oc4ccccc43)OCC2=O)cc1` (stereo not given), the outcome was inactive.

Consider `CC(=O)Nc1ccc(CN2C(=N)C3(CC(C)(C)Oc4ccccc43)OC2=O)cc1` (stereo not given), for which the result was Active.

`CC1(C)CN(C2=CCCC2=O)c2cc([N+](=O)[O-])ccc2S1`: the result was Active.

As to `CC1(C)CC2(CN(Cc3ccccc3)C(=S)CO2)c2cc(Br)ccc2O1` (stereo not given), the result was inactive.

With `CC1(C)CC2(CN(Cc3ccccc3)CCO2)c2cc(Br)ccc2O1` (stereo not given), the result was inactive.

Regarding `COc1cccc(CN2CC3(CC(C)(C)Oc4ccc(Br)cc43)OCC2=O)c1` (stereo not given), the result was inactive.

`CC1(C)CC2(CN(Cc3ccc(Br)cc3)C(=O)CO2)c2ccccc2O1` (stereo not given): the result was Active.

Take `CC1(C)CC2(CN(Cc3ccc(NS(C)(=O)=O)cc3)CCO2)c2ccccc2O1` (stereo not given): the result was inactive.

`Cc1ccc(CN2CC3(CC(C)(C)Oc4ccc(Br)cc43)OCC2=O)cc1` (stereo not given): the result was inactive.

On to `CC1(C)Oc2ccc(C#N)cc2[C@H](N(Cc2ncc[nH]2)c2ccc(Cl)cc2)[C@H]1O`, for which the result was Active.

Regarding `CC1=Nc2ccc(Cl)cc2S(=O)(=O)N1`, the outcome was Active.

In the case of `COc1ccc(CN2CCOC3(C2)CC(C)(C)Oc2ccc(Br)cc23)cc1` (stereo not given), the result was inactive.

In the case of `COc1cccc(CN2CC3(CC(C)(C)Oc4ccccc43)OCC2=O)c1` (stereo not given), the result was inactive.

For `COc1cccc(CN2CCOC3(C2)CC(C)(C)Oc2ccc(Br)cc23)c1` (stereo not given), the outcome was Active.

`CC1(C)CC2(CN(Cc3ccccc3)C(=S)CO2)c2ccccc2O1` (stereo not given): the outcome was Active.

For the molecule `CC1(C)CC2(CN(C(=O)c3ccccc3)C(=O)CO2)c2ccccc2O1` (stereo not given), the result was inactive.

For `CC1(C)CN(C2=CCCC2=O)c2cc(C(F)(F)F)ccc2S1`, the result was Active.

On to `COc1ccccc1CN1CC2(CC(C)(C)Oc3ccccc32)OCC1=O` (stereo not given), for which the outcome was Active.

For the molecule `Cc1ccc(CN2CCOC3(C2)CC(C)(C)Oc2ccccc23)cc1` (stereo not given), the outcome was Active.

Consider `CC(=O)Nc1ccc(CN2CC3(CC(C)(C)Oc4ccc(Br)cc43)OCC2=O)cc1` (stereo not given), for which the outcome was inactive.

Take `CC(=O)Nc1ccc(CN2CCOC3(C2)CC(C)(C)Oc2ccccc23)cc1` (stereo not given): the outcome was inactive.

As to `COc1ccccc1CN1CC2(CC(C)(C)Oc3ccc(Br)cc32)OCC1=O` (stereo not given), the result was Active.

Consider `CC1(C)CC2(CN(Cc3ccc(NS(C)(=O)=O)cc3)C(=O)O2)c2ccccc2O1` (stereo not given), for which the outcome was inactive.

On to `CC1(C)CC2(OC(=O)N(Cc3ccccc3)C2=N)c2cc(Br)ccc2O1` (stereo not given), for which the result was inactive.

As for `CC1(C)CC2(CN(Cc3ccc(Br)cc3)C(=O)CO2)c2cc(Br)ccc2O1` (stereo not given), the result was inactive.

Consider `Cc1ccc(C(=O)N2CCOC3(C2)CC(C)(C)Oc2ccccc23)cc1` (stereo not given), for which the result was inactive.

As to `CC1(C)CC2(CN(C(=O)c3ccccc3)CCO2)c2ccccc2O1` (stereo not given), the result was inactive.

In the case of `COc1ccc(CN2CCOC3(C2)CC(C)(C)Oc2ccccc23)cc1` (stereo not given), the outcome was Active.

As for `CC1(C)CC2(CN(Cc3ccc(C(F)(F)F)cc3)CCO2)c2ccccc2O1` (stereo not given), the result was inactive.

Turning to `CC1(C)CC2(CN(Cc3ccc(N)cc3)C(=O)CO2)c2cc(Br)ccc2O1` (stereo not given), the result was Active.

Consider `CC(=O)Nc1ccc(CN2CC3(CC(C)(C)Oc4ccccc43)OCC2=O)cc1` (stereo not given), for which the outcome was Active.

Regarding `CC1(C)CC2(OC(=O)N(Cc3ccc(NS(C)(=O)=O)cc3)C2=N)c2cc(Br)ccc2O1` (stereo not given), the result was inactive.

With `CC1(C)CC2(CN(Cc3ccc(N)cc3)C(=O)CO2)c2ccccc2O1` (stereo not given), the outcome was Active.

For the molecule `CC1(C)Oc2ccc(C#N)cc2[C@@H](/N=C(\NC#N)Nc2ccc(Cl)cc2)[C@@H]1O` (single isomer, unassigned), the outcome was Active.

Regarding `CC(=O)Nc1ccc(CN2CCOC3(C2)CC(C)(C)Oc2ccc(Br)cc23)cc1` (stereo not given), the outcome was inactive.

Consider `CC1(C)CC2(CN(Cc3ccc(C(F)(F)F)cc3)C(=O)CO2)c2cc(Br)ccc2O1` (stereo not given), for which the result was inactive.

`CC1(C)CC2(CN(Cc3ccc(NS(C)(=O)=O)cc3)C(=O)CO2)c2cc(Br)ccc2O1` (stereo not given): the outcome was Active.

As to `COc1cccc(CN2CCOC3(C2)CC(C)(C)Oc2ccccc23)c1` (stereo not given), the result was inactive.

On to `CC1(C)CC2(CN(Cc3ccc(NS(C)(=O)=O)cc3)C(=O)CO2)c2ccccc2O1` (stereo not given), for which the outcome was Active.

Regarding `CC1(C)CN(C2=CCCC2=O)c2cc(C#N)ccc2S1`, the result was Active.

`CCC(C)(C)/N=C(\NC#N)Nc1cccnc1`: the outcome was inactive.

As to `CC(N/C(=N\C#N)Nc1ccncc1)C(C)(C)C` (stereo not given), the result was Active.

As for `CC1(C)CC2(CN(Cc3ccccc3)C(=O)CO2)c2ccccc2O1` (stereo not given), the outcome was inactive.

Turning to `COc1ccc(CN2CC3(CC(C)(C)Oc4ccccc43)OCC2=O)cc1` (stereo not given), the outcome was inactive.

For the molecule `CC(=O)Nc1ccc(C(=O)N2CCOC3(C2)CC(C)(C)Oc2ccccc23)cc1` (stereo not given), the outcome was inactive.

In the case of `CC1(C)CC2(CN(Cc3ccccc3)C(=O)CO2)c2cc(Br)ccc2O1` (stereo not given), the result was inactive.

Values taken from ChEMBL document CHEMBL1154116, “Predictive models, based on classification algorithms, for compounds potentially active as mitochondrial ATP-sensitive potassium channel openers” (Bioorg Med Chem, 2009).
